Test results from ChEMBL document CHEMBL1201862, “PubChem BioAssay data set” (2004).
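Five concentrations, 48 hours, 96-well plates. GI50 marks 50% less growth.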 The source made the active and inactive calls. No stated cut-off is given here; in the data, active = GI50 up to about 1.1 µM and inactive = higher.

What was measured:
Experiment in all cases: DTP human tumour cell line panel, 48 h
A498 = test system: A498
A549 = test system: A549
CAKI-1 = test system: CAKI-1
CCRF-CEM = test system: CCRF-CEM
COLO 205 = test system: COLO 205
DLD-1 = test system: DLD-1
DMS-273 = test system: DMS-273
EKVX = test system: EKVX
HCC 2998 = test system: HCC 2998
HCT-116 = test system: HCT-116
HCT-15 = test system: HCT-15
HL-60 = test system: HL-60
HOP-18 = test system: HOP-18
HOP-62 = test system: HOP-62
HOP-92 = test system: HOP-92
HT-29 = test system: HT-29
IGROV-1 = test system: IGROV-1
K562 = test system: K562
KM-20L2 = test system: KM-20L2
KM12 = test system: KM12
LOX IMVI = test system: LOX IMVI
M19-MEL = test system: M19-MEL
MCF7 = test system: MCF7
MOLT-4 = test system: MOLT-4
Malme-3M = test system: Malme-3M
NCI-H226 = test system: NCI-H226
NCI-H23 = test system: NCI-H23
NCI-H460 = test system: NCI-H460
NCI-H522 = test system: NCI-H522
NCI/ADR-RES = test system: NCI/ADR-RES
OVCAR-3 = test system: OVCAR-3
OVCAR-4 = test system: OVCAR-4
OVCAR-5 = test system: OVCAR-5
OVCAR-8 = test system: OVCAR-8
RPMI-8226 = test system: RPMI-8226
RXF 393 = test system: RXF 393
SF-268 = test system: SF-268
SF-295 = test system: SF-295
SF-539 = test system: SF-539
SK-MEL-28 = test system: SK-MEL-28
SK-MEL-2 = test system: SK-MEL-2
SK-MEL-5 = test system: SK-MEL-5
SK-OV-3 = test system: SK-OV-3
SN12C = test system: SN12C
SNB-19 = test system: SNB-19
SNB-75 = test system: SNB-75
SNB-78 = test system: SNB-78
SW-620 = test system: SW-620
U-251 = test system: U-251
UACC-257 = test system: UACC-257
UACC-62 = test system: UACC-62
UO-31 = test system: UO-31
XF498 = test system: XF498

With `CC1(C)CC23C4COC(=O)C2CCC1C3CC4=O` (centres undefined) the GI50 (A498) was 5.92 µM (inactive), the GI50 (A549) was 19.1 µM (inactive) and the GI50 (CAKI-1) was 5.47 µM (inactive). The GI50 (CCRF-CEM) was 2.37 µM (inactive), the GI50 (COLO 205) was 15.6 µM (inactive) and the GI50 (DLD-1) was 11.2 µM (inactive). For the same molecule, the GI50 (DMS-273) was 19.9 µM (inactive), the GI50 (EKVX) was 26.7 µM (inactive) and the GI50 (HCC 2998) was 13.9 µM (inactive). For the same molecule, the GI50 (HCT-116) was 6.71 µM (inactive), the GI50 (HCT-15) was 6.52 µM and the GI50 (HL-60) was 3.06 µM (inactive). For the same molecule, the GI50 (HOP-18) was 1.72 µM (inactive), the GI50 (HOP-62) was 24.4 µM (inactive) and the GI50 (HOP-92) was 8.26 µM (inactive). The GI50 (HT-29) was 22.9 µM (inactive), the GI50 (IGROV-1) was 21.9 µM (inactive) and the GI50 (K562) was 9.84 µM (inactive). The GI50 (KM-20L2) was 21.4 µM (inactive), the GI50 (KM12) was 12.6 µM (inactive) and the GI50 (LOX IMVI) was 8.39 µM (inactive). For the same molecule, the GI50 (M19-MEL) was 11.9 µM (inactive), the GI50 (MCF7) was 19.5 µM (inactive) and the GI50 (MOLT-4) was 5.87 µM (inactive). The GI50 (Malme-3M) was 7.21 µM (inactive), the GI50 (NCI-H226) was 6.59 µM (inactive) and the GI50 (NCI-H23) was 3.27 µM (inactive). The GI50 (NCI-H460) was 11.1 µM (inactive), the GI50 (NCI-H522) was 3.32 µM (inactive) and the GI50 (NCI/ADR-RES) was 7.21 µM (inactive). For the same molecule, the GI50 (OVCAR-3) was 12.5 µM (inactive), the GI50 (OVCAR-4) was 15.2 µM (inactive) and the GI50 (OVCAR-5) was 32.6 µM (inactive). For the same molecule, the GI50 (OVCAR-8) was 10 µM (inactive), the GI50 (RPMI-8226) was 5.28 µM (inactive) and the GI50 (RXF 393) was 1.71 µM (inactive). The GI50 (SF-268) was 10.6 µM (inactive), the GI50 (SF-295) was 19.8 µM (inactive) and the GI50 (SF-539) was 19.5 µM (inactive). The GI50 (SK-MEL-28) was 6.12 µM (inactive), the GI50 (SK-MEL-2) was 14.5 µM (inactive) and the GI50 (SK-MEL-5) was 9.86 µM (inactive). For the same molecule, the GI50 (SK-OV-3) was 39.3 µM (inactive), the GI50 (SN12C) was 15.8 µM (inactive) and the GI50 (SNB-19) was 28.3 µM (inactive). For the same molecule, the GI50 (SNB-75) was 19.8 µM (inactive), the GI50 (SNB-78) was 15 µM (inactive) and the GI50 (SW-620) was 3.04 µM (inactive). For the same molecule, the GI50 (U-251) was 20.7 µM (inactive), the GI50 (UACC-257) was 9.59 µM (inactive) and the GI50 (UACC-62) was 10.5 µM (inactive). The GI50 (UO-31) was 28.6 µM (inactive) and the GI50 (XF498) was 13.7 µM (inactive).
In the case of `O=Cc1c(Br)[nH]c2ccccc12`, the GI50 (A498) is reported as > 100 µM (inactive), the GI50 (A549) is reported as > 100 µM (inactive) and the GI50 (CCRF-CEM) is reported as 96.6 µM (inactive). For the same molecule, the GI50 (COLO 205) was 97.9 µM (inactive), the GI50 (DLD-1) was > 100 µM (inactive) and the GI50 (DMS-273) was > 100 µM (inactive). The GI50 (EKVX) was > 100 µM (inactive), the GI50 (HCC 2998) was > 100 µM (inactive) and the GI50 (HCT-116) was 84.7 µM (inactive). For the same molecule, the GI50 (HCT-15) was greater than 100 µM, the GI50 (HL-60) was 9.55 µM (inactive) and the GI50 (HOP-18) was 61.1 µM (inactive). For the same molecule, the GI50 (HOP-62) was > 100 µM (inactive), the GI50 (HOP-92) was 29.6 µM (inactive) and the GI50 (HT-29) was > 100 µM (inactive). For the same molecule, the GI50 (IGROV-1) was > 81.1 µM (inactive), the GI50 (K562) was > 100 µM (inactive) and the GI50 (KM-20L2) was > 100 µM (inactive). The GI50 (KM12) was > 100 µM (inactive), the GI50 (LOX IMVI) was 71.6 µM (inactive) and the GI50 (M19-MEL) was > 79.6 µM (inactive). For the same molecule, the GI50 (MCF7) was 47 µM (inactive), the GI50 (MOLT-4) was 27 µM (inactive) and the GI50 (Malme-3M) was > 100 µM (inactive). The GI50 (NCI-H226) was > 58.3 µM (inactive), the GI50 (NCI-H23) was > 100 µM (inactive) and the GI50 (NCI-H460) was > 100 µM (inactive). The GI50 (NCI-H522) was 61.2 µM (inactive), the GI50 (NCI/ADR-RES) was > 100 µM (inactive) and the GI50 (OVCAR-3) was > 100 µM (inactive). The GI50 (OVCAR-4) was 56.8 µM (inactive), the GI50 (OVCAR-5) was > 91.4 µM (inactive) and the GI50 (OVCAR-8) was > 100 µM (inactive). The GI50 (RPMI-8226) was 19.3 µM (inactive), the GI50 (RXF 393) was > 100 µM (inactive) and the GI50 (SF-268) was > 100 µM (inactive). The GI50 (SF-295) was 75.2 µM (inactive), the GI50 (SF-539) was > 100 µM (inactive) and the GI50 (SK-MEL-28) was > 100 µM (inactive). For the same molecule, the GI50 (SK-MEL-2) was 75.3 µM (inactive), the GI50 (SK-MEL-5) was 45.4 µM (inactive) and the GI50 (SK-OV-3) was 94.4 µM (inactive). The GI50 (SN12C) was > 100 µM (inactive), the GI50 (SNB-75) was 28.8 µM (inactive) and the GI50 (SNB-78) was > 67 µM (inactive). The GI50 (SW-620) was > 100 µM (inactive), the GI50 (U-251) was 89.3 µM (inactive) and the GI50 (UACC-257) was 26.9 µM (inactive). The GI50 (UACC-62) was 47 µM (inactive), the GI50 (UO-31) was 39.9 µM (inactive) and the GI50 (XF498) was > 100 µM (inactive).
